Some test systems named below: SK-OV-3 ovarian; OVCAR-3 ovarian; NCI-H226 lung; A549 NSCLC; NCI/ADR-RES ovarian; HOP-92 NSCLC; IGROV1 ovarian; CAKI-1 renal; KM12 colon; BT-549 breast.
What all share (experiment): growth of human tumour cells (NCI), 48 h

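How tested: cells in 96-well plates exposed to compound for 48 hours at five concentrations. GI50 = concentration required for 50% inhibition of growth. TGI marks complete inhibition of growth.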 Peptide text beside a SMILES is read from it. * marks the point of attachment. X26 = Clc1c(Cl)c(Cl)c(O*)c(Cl)c1Cl; Boc = CC(C)(C)OC(=O)*; OBn = c1ccc(CO*)cc1; Bn = c1ccc(C*)cc1

`Cc1nc(SCC(N)=O)c2sc(=S)n(-c3ccccc3)c2n1`: the TGI in the experiment with SK-OV-3 ovarian, with OVCAR-3 ovarian, in the experiment on NCI-H226 lung, in the experiment on A549 NSCLC, in the experiment with NCI/ADR-RES ovarian and with HOP-92 NSCLC was greater than 10 µM each time. The TGI in the experiment on IGROV1 ovarian, in the experiment on CAKI-1 renal and with KM12 colon was greater than 10 µM throughout.

On to `CC(=O)OC1CC2(O)C(CCC3(C)C(c4ccc(=O)oc4)CCC32O)C2(C)C1=CC(O)C1OC12` (stereo not drawn), for which the TGI in the experiment with SK-OV-3 ovarian stood at 0.252 µM; in the experiment on OVCAR-3 ovarian, 0.0697 µM; in the experiment on NCI-H226 lung, 0.643 µM; in the experiment with A549 NSCLC, 0.0569 µM; in the experiment on NCI/ADR-RES ovarian it was 0.284 µM; in the experiment on HOP-92 NSCLC, 0.157 µM. Besides, the TGI was 0.753 µM in the experiment with IGROV1 ovarian, 0.0968 µM with CAKI-1 renal and 0.301 µM with KM12 colon.

`CCCO/N=[N+](\[O-])N(CC)CC`: the TGI with SK-OV-3 ovarian, in the experiment on OVCAR-3 ovarian, in the experiment on NCI-H226 lung, in the experiment on A549 NSCLC, in the experiment with HOP-92 NSCLC and with IGROV1 ovarian was greater than 100 µM each time. Besides, the TGI with KM12 colon was greater than 100 µM.

In the case of `N#C/C(=C\c1cccc(Br)c1)c1nc2ccccc2c(=O)[nH]1`, the TGI with SK-OV-3 ovarian is greater than 100 µM; in the experiment on NCI-H226 lung, greater than 100 µM; with A549 NSCLC, greater than 100 µM; in the experiment with NCI/ADR-RES ovarian it was greater than 100 µM; with HOP-92 NSCLC it was 53.2 µM; in the experiment with IGROV1 ovarian it was greater than 100 µM. Further, the TGI in the experiment with CAKI-1 renal and with KM12 colon was greater than 100 µM each time.

As for `CC(C)CC(NC(=O)C(CCC(=O)OCc1ccccc1)NC(=O)OC(C)(C)C)C(=O)NC(COCc1ccccc1)C(=O)NC(Cc1ccccc1)C(=O)Oc1c(Cl)c(Cl)c(Cl)c(Cl)c1Cl` (stereo not drawn) (Boc-E(OBn)LS(Bn)F-X26; configuration not given here), the TGI in the experiment with SK-OV-3 ovarian turned out to be 83.8 µM; in the experiment with A549 NSCLC, 96 µM; in the experiment on NCI/ADR-RES ovarian, 86.8 µM; in the experiment on HOP-92 NSCLC, 43.8 µM; in the experiment on IGROV1 ovarian, 56.3 µM; with CAKI-1 renal it was 48.4 µM. In the experiment with KM12 colon, this molecule came in with a TGI of 47.1 µM.

Regarding `O=c1ccn(-c2ccccn2)c(=O)n1-c1ccccn1`, the TGI with SK-OV-3 ovarian, in the experiment with OVCAR-3 ovarian, in the experiment on NCI-H226 lung, in the experiment with A549 NSCLC, in the experiment with NCI/ADR-RES ovarian and in the experiment on HOP-92 NSCLC was greater than 100 µM in each case. The TGI with IGROV1 ovarian, in the experiment on CAKI-1 renal and in the experiment on KM12 colon was greater than 100 µM in each case.

Take `CCCCCCCCCCCCNC(=O)CCC(NC(=O)c1ccc(N(C)Cc2cnc3nc(N)nc(N)c3n2)cc1)C(=O)NCCCCCCCCCCCC` (stereo not drawn): the TGI in the experiment on BT-549 breast is greater than 100 µM; in the experiment on OVCAR-3 ovarian it was greater than 100 µM; in the experiment with NCI-H226 lung, greater than 100 µM; with A549 NSCLC, greater than 100 µM; with NCI/ADR-RES ovarian it was greater than 100 µM; in the experiment with HOP-92 NSCLC, 30.9 µM. Further, the TGI in the experiment on IGROV1 ovarian and with KM12 colon was greater than 100 µM each time.

For the molecule `O=C(CC(C(=O)c1cccs1)c1ccc2c(c1)OCO2)c1ccc(Br)cc1` (stereo not drawn), the TGI in the experiment on SK-OV-3 ovarian, in the experiment with NCI-H226 lung, with A549 NSCLC, with NCI/ADR-RES ovarian, with IGROV1 ovarian and in the experiment on CAKI-1 renal was greater than 100 µM each time. In the experiment on KM12 colon, this molecule returned a TGI greater than 100 µM.

Regarding `CCCCCCc1cc2cc(-c3csc(-c4ccc(OC)cc4)n3)c(=O)oc2cc1O`, the TGI in the experiment with BT-549 breast was found to be 7.38 µM; in the experiment with SK-OV-3 ovarian, 33.1 µM; with NCI-H226 lung it was 30.6 µM; in the experiment with A549 NSCLC, 32.8 µM; with HOP-92 NSCLC it was 16.2 µM; with IGROV1 ovarian, 19.1 µM. In addition, the TGI in the experiment with CAKI-1 renal worked out at 20 µM; in the experiment on KM12 colon it was 68.2 µM.

`C[C@H](c1ccccc1)N1C(=O)[C@@H](OCc2ccccc2)[C@H]1[C@H](COC(=O)COCc1ccccc1)OCc1ccccc1`: the TGI in the experiment on SK-OV-3 ovarian is greater than 100 µM; in the experiment with OVCAR-3 ovarian it was greater than 100 µM; in the experiment on NCI-H226 lung, 89.4 µM; with A549 NSCLC, greater than 100 µM; in the experiment on HOP-92 NSCLC, greater than 100 µM; in the experiment on IGROV1 ovarian, greater than 100 µM. In addition, the TGI in the experiment on KM12 colon was greater than 100 µM.

`CCN(CCCCCCCCCCN1CC(=O)N(CCCCCCCCCCN(CC)Cc2ccccc2OC)CC1=O)Cc1ccccc1OC`: the GI50 was 1.83 µM in the experiment with SK-OV-3 ovarian; 1.18 µM with OVCAR-3 ovarian; 1.96 µM with NCI-H226 lung; 1.65 µM in the experiment with A549 NSCLC; 1.64 µM in the experiment with NCI/ADR-RES ovarian; 0.359 µM with HOP-92 NSCLC. Also, the GI50 was 1.57 µM in the experiment with IGROV1 ovarian, 1.57 µM in the experiment with CAKI-1 renal and 1.03 µM with KM12 colon. In addition, the TGI with SK-OV-3 ovarian is 3.68 µM; with OVCAR-3 ovarian it was 2.48 µM; with NCI-H226 lung, 3.94 µM; with A549 NSCLC, 4.54 µM; in the experiment on NCI/ADR-RES ovarian it was 3.24 µM; in the experiment on HOP-92 NSCLC, 2.34 µM. Besides, the TGI in the experiment with IGROV1 ovarian came to 3.62 µM; in the experiment on CAKI-1 renal, 3.15 µM; in the experiment on KM12 colon, 2.24 µM.

Consider `O=[N+]([O-])/C(Cl)=C(/C(Cl)=C(Cl)Cl)N1CCCCC1`, for which the TGI in the experiment with SK-OV-3 ovarian is greater than 100 µM; in the experiment with OVCAR-3 ovarian, 22.8 µM; in the experiment on NCI-H226 lung, 34.1 µM; in the experiment on A549 NSCLC it was 28.5 µM; in the experiment with NCI/ADR-RES ovarian it was 19.1 µM; with HOP-92 NSCLC, 30.2 µM. In addition, the figures for the TGI in the experiment on IGROV1 ovarian, in the experiment with CAKI-1 renal and in the experiment on KM12 colon were 23.4 µM, 24.9 µM and 27.6 µM, respectively.

For the molecule `COc1ccc(OC)c(NC(=O)C(=O)C(C(=O)c2ccccc2F)C2OC(=O)c3ccccc32)c1` (stereo not drawn), the TGI in the experiment on SK-OV-3 ovarian is greater than 100 µM; in the experiment with NCI-H226 lung, 54.5 µM; in the experiment with A549 NSCLC, greater than 100 µM; in the experiment on HOP-92 NSCLC it was greater than 100 µM; in the experiment with IGROV1 ovarian it was greater than 100 µM; with CAKI-1 renal, greater than 100 µM. The TGI with KM12 colon is greater than 100 µM.

For the molecule `CCOC(=O)Cn1nnc2cc(Nc3c(C)[n+]([O-])c4cc(F)c(OCC)cc4[n+]3[O-])ccc21`, the TGI in the experiment on SK-OV-3 ovarian is greater than 100 µM; in the experiment on OVCAR-3 ovarian, greater than 100 µM; in the experiment on NCI-H226 lung, greater than 100 µM; in the experiment with NCI/ADR-RES ovarian, greater than 100 µM; in the experiment on HOP-92 NSCLC it was 49.5 µM; in the experiment on IGROV1 ovarian it was greater than 100 µM. Besides, the TGI in the experiment with CAKI-1 renal and with KM12 colon was greater than 100 µM each time.

Take `CC(O)CNC1=CC(=O)C(=O)c2ccccc21` (stereo not drawn): the TGI was greater than 100 µM with SK-OV-3 ovarian; 13.4 µM with OVCAR-3 ovarian; 39.5 µM in the experiment with A549 NSCLC; 53.3 µM in the experiment with HOP-92 NSCLC; 33.8 µM in the experiment with IGROV1 ovarian; 33.5 µM in the experiment with CAKI-1 renal. The same molecule displayed a TGI with KM12 colon of 56.2 µM.

Values taken from PubChem BioAssay (NCI).
